In patent US10064909B2, “Compositions and methods for chronic use of a weight-gaining compound” (priority 2015, dated 2018):
Where “and” joins values, the source holds several entries; their conditions need not be identical. Identical values can stand only once.

Experiments:
IGF-1 [1] = assay: One-year dog safety study: IGF-1 plasma levels; type: in vivo, Beagle dogs; details: dogs, following treatment, sustained over time to Day 351
Experimental: (§1) This study evaluated the safety of capromorelin in dogs. Thirty-two Beagle dogs were randomly assigned to four groups (n=4/sex/group) and received 0 mg/kg, 0.39 mg/kg, 9.2 mg/kg, or 52.4 mg/kg capromorelin (with the dose calculated per the tartrate salt) once daily by oral gavage for 12 consecutive months. Safety parameters were evaluated including clinical signs, food consumption, bodyweight, clinical pathology, urinalysis, ophthalmology, electrocardiogram and vital signs. Capromorelin, GH and IGF-1 were measured in plasma samples collected at various time points during the study. At the end of the dosing period, dogs were humanely euthanized and necropsied. Selected organs were weighed and tissue samples collected and processed for microscopic examination.

IGF-1 [2] = assay: Capromorelin efficacy in cats for 21 days: serum IGF-1 levels; type: in vivo
Experimental: Thirty-two cats (16 neutered males, 16 females) were divided into 4 treatment groups including 4 animals of each sex per group. The cats were acclimated to the study environment for 10 days prior to study start. All cats were orally dosed with placebo (Group 1) or capromorelin (30 mg/ml oral solution, Formulation 9 as described above) at 1 mg/kg (Group 2), 2 mg/kg (Group 3) or 3 mg/kg (Group 4), for 21 days, with dosing starting on Day 1. Physical examinations were performed on Day −10 and general health observations made daily. Body weights were evaluated on Days −10, −8, −1, 1, 8, 15 and 22 days. Cats were fed about 1 hour after dosing. Commercial dry cat food (300 g) was provided for 5 hours and then removed and the amount of food consumed (g) calculated per cat. On Days 1, 14 and 21, blood samples were collected prior to daily dose administration and at 8 hours post-dose and serum processed for measurement of IGF-1 levels.

[3] = Cat dose titration laboratory study (21 days): food consumption and bodyweight; type: in vivo; details: cats; for Mean % Change (±SD) in Food Consumption Over 21 Days: Day 1-21 vs Days -3 to -1, listed as AT-002, L-tartrate; for Mean % Change (±SD) in Bodyweight Over 21 Days: Day 1 to Day 22
Experimental: This study tested the effectiveness of an oral formulation of AT-002 in laboratory cats and to select a dose that would cause increased food intake and weight gain. This study investigated the effects of a capromorelin oral solution in cats dosed at 1 mg/kg, 2 mg/kg or 3 mg/kg compared to placebo (n=8/group) for 21 days. Food consumption was measured each day from Day −10 through Day 21. For each cat, baseline food consumption was calculated as the average of Days −3, −2 and −1. The percent change from baseline to treatment period was calculated as 100× (treatment period minus baseline)/baseline. Bodyweight was measured on Day 1, Day 8, Day 15 and Day 22. Baseline bodyweight was defined as the value collected on Day 1 (prior to treatment).

[4] = Laboratory cats modelling CKD safety pilot study; type: in vivo
Text: This study sought to define a capromorelin pharmacokinetic profile in serum of cats with compromised kidney function, to determine if accumulation of capromorelin in serum occurred after 14 days of treatment, and to observe cats for any potential adverse effects of treatment not seen in normal cats. The target population for the capromorelin oral solution included cats with CKD. Therefore, this study used laboratory with significant portions of their kidneys surgically removed and subsequently compromised kidney function indicated by increased serum creatinine and BUN. These cats were developed as a model by Charles River, and are maintained at a colony at their facility in Ballina, Ireland.
Sixteen cats with compromised kidney function were enrolled in the study and randomized to three groups. Animals assigned to Group 1 (n=6) were administered AT-002 once on Day 0 by intravenous catheter at a dose rate of 0.75 mg/kg per cat. Animals assigned to Group 2 (n=6) were administered the AT-002 daily for 14 days by subcutaneous injection at a dose rate of 2 mg/kg. Subcutaneous and intravenous treatment routes were used to assure that sufficient drug exposure occurred. Animals assigned to Group 3 (n=4) served as untreated controls.
Blood samples were collected for capromorelin and/or IGF-1 analysis from animals assigned to Group 1 on Study Day 0. Blood samples were also collected from animals assigned to Groups 2 and 3 on Study Days −1 and 13 (prior to dosing) for hematology and clinical chemistry analysis. Appetite was assessed by food intake and weight gain. Bodyweight measurements were performed on Days −7, −1 (all groups) and on Day 13 (Groups 2 and 3 only). Food intake was monitored from Day −7 to Day 13 inclusive for animals assigned to Groups 2 and 3. Animals were observed daily for clinical signs.

[5] = Dose titration laboratory study (10 days): food consumption and bodyweight; type: in vivo; details: cats
Experimental: (§2) This study defined a capromorelin oral solution dose regime that provides increased food intake and weight gain and the accompanying desired profile of IGF-1 serum levels. Laboratory adult cats were housed individually and divided into five groups (3/sex/group; n=6/group). Cats were dosed once daily for 10 consecutive days with either placebo, 1 mg/kg AT-002, 2 mg/kg AT-002, 3 mg/kg AT-002 or 4 mg/kg AT-002. The test article was a flavored solution formulation very similar to the final formulation. Study activities are summarized at Table 5.
The percent change in food consumption from baseline (average of Day −3, Day −2, and Day −1) compared to the treatment period (average of Day 1 through Day 10) was calculated for each cat, and is summarized at Table 6. The mean percent change from baseline to the treatment period for the placebo group increased 13.0%.
The percent change in bodyweight from Day −1 compared to Day 10 was calculated for each cat, and is summarized at table 7. The mean percent change for the placebo group was −0.35%, indicating a decrease in weight. […] The 4 mg/kg AT-002 group approached statistical significance (p=0.0502)

GH = assay: One-year dog safety study: GH plasma levels; type: in vivo, Beagle dogs; details: dogs, Days 1, 170 and 351 following treatment
Experimental: as §1

IGF-1 [6] = assay: Dose titration laboratory study (10 days): serum IGF-1; type: in vivo; details: cats
Experimental: as §2

SMILES: CN1N=C2CCN(C(=O)[C@@H](COCc3ccccc3)NC(=O)C(C)(C)N)C[C@@]2(Cc2ccccc2)C1=O.O=C(O)C(O)C(O)C(=O)O [capromorelin, N-[(2R)-1-[(3aR)-2-methyl-3-oxo-3a-(phenylmethyl)-6,7-dihydro-4H-pyrazolo[4,3-c]pyridin-5-yl]-1-oxo-3-(phenylmethoxy)propan-2-yl]-2-amino-2-methylpropanamide L-tartrate]
- IGF-1 plasma levels (IGF-1 [1]): increased
- group mean serum IGF-1 increase from 0 to 8 hours post-dose (IGF-1 [2]; 1 mg/kg (Group 2), Day 1): 46.69%
- group mean serum IGF-1 increase from 0 to 8 hours post-dose (IGF-1 [2]; 1 mg/kg (Group 2), Day 14): 17.27%
- group mean serum IGF-1 increase from 0 to 8 hours post-dose (IGF-1 [2]; 1 mg/kg (Group 2), Day 21): 9.81%
- group mean serum IGF-1 increase from 0 to 8 hours post-dose (IGF-1 [2]; 2 mg/kg (Group 3), Day 1): 29.38%
- group mean serum IGF-1 increase from 0 to 8 hours post-dose (IGF-1 [2]; 2 mg/kg (Group 3), Day 14): 9.00%
- group mean serum IGF-1 increase from 0 to 8 hours post-dose (IGF-1 [2]; 2 mg/kg (Group 3), Day 21): 2.68%
- group mean serum IGF-1 increase from 0 to 8 hours post-dose (IGF-1 [2]; 3 mg/kg (Group 4), Day 1): 36.77%
- group mean serum IGF-1 increase from 0 to 8 hours post-dose (IGF-1 [2]; 3 mg/kg (Group 4), Day 14): 18.56%
- group mean serum IGF-1 increase from 0 to 8 hours post-dose (IGF-1 [2]; 3 mg/kg (Group 4), Day 21): 5.17%
- Mean % Change (±SD) in Food Consumption Over 21 Days ([3]; 1 mg/kg, 1 mg/kg): 25.3% and 25.32 ± 16.70%
- Mean % Change (±SD) in Bodyweight Over 21 Days ([3]; 1 mg/kg): 5.41 ± 4.11%
- Mean % Change (±SD) in Food Consumption Over 21 Days ([3]; 2 mg/kg, 2 mg/kg): 45.7% and 45.67 ± 24.39%
- Mean % Change (±SD) in Bodyweight Over 21 Days ([3]; 2 mg/kg): 6.61 ± 5.05%
- Mean % Change (±SD) in Food Consumption Over 21 Days ([3]; 3 mg/kg, 3 mg/kg): 29.6% and 29.59 ± 13.65%
- Mean % Change (±SD) in Bodyweight Over 21 Days ([3]; 3 mg/kg): 3.92 ± 5.15%
- bodyweight ([4]; Group 2, 2 mg/kg/day subcutaneous, Day -7 to Day 13): lost bodyweight
- appetite stimulation (food intake, bodyweight) ([4]; cats with compromised kidney function, 2 mg/kg subcutaneous daily 14 days): unable to stimulate appetite
- drug accumulation (pharmacokinetic profiles) ([4]; cats with compromised kidney function, IV 0.75 mg/kg once or SC 2 mg/kg daily 14 days): no evidence of drug accumulation
- Food Consumption, Percent Change From Baseline ([5]; 1 mg/kg SID, Day 1-10 vs Days -3 to -1): 30.54%
- Bodyweight, Percent Change From Baseline ([5]; 1 mg/kg SID, Day -1 to Day 10): 3.07%
- Food Consumption, Percent Change From Baseline ([5]; 2 mg/kg SID, Day 1-10 vs Days -3 to -1): 45.53%
- Bodyweight, Percent Change From Baseline ([5]; 2 mg/kg SID, Day -1 to Day 10): 3.66%
- Food Consumption, Percent Change From Baseline ([5]; 3 mg/kg SID, Day 1-10 vs Days -3 to -1): 54.04%
- Bodyweight, Percent Change From Baseline ([5]; 3 mg/kg SID, Day -1 to Day 10): 5.72%
- Food Consumption, Percent Change From Baseline ([5]; 4 mg/kg SID, minus 5F1, Day 1-10 vs Days -3 to -1): 78.82%
- Bodyweight, Percent Change From Baseline ([5]; 4 mg/kg SID, minus 5F1, Day -1 to Day 10): 3.57%
- GH plasma levels (GH): increased modestly
- time of initial IGF-1 response (increase) (IGF-1 [6]; following treatment, Days 1 and 10): about 4 hours
- duration of elevated IGF-1 levels post-dose (IGF-1 [6]; once-a-day dosing): 24 h
- time to maximum relatively steady IGF-1 level (IGF-1 [6]; post-dose, Days 1 and 10): ≤ 8 h
